Calls of active or inactive are those of the source. The rule behind the calls is not given here.
Columns and labels:
[1] = Covalent inhibition of C-terminal 6His-tagged Chlamydia trachomatis DUB1 (130 to 401 residues) expressed in Escherichia coli Rosetta 2 (DE3) cells using Ub-Rh110Gly as fluorogenic substrate preincubated for 1 hr followed by substrate addition by plate reader analysis
[2] = molecular target: T1, Ubiquitin carboxyl-terminal hydrolase isozyme L1 (Homo sapiens, UniProt P09936); assay: Inhibition of 6His-tagged human UCHL1 using Ub-Rh110Gly as fluorogenic substrate preincubated for 1 hr followed by substrate addition by plate reader analysis
T1 sequence (P09936 whole entry): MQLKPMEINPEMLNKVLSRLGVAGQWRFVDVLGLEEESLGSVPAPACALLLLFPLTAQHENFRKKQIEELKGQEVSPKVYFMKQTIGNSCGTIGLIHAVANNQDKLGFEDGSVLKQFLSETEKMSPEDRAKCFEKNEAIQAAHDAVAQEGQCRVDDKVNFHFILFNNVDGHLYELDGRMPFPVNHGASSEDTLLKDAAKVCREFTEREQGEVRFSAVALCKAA

[3] = molecular target: T2, Ubiquitin carboxyl-terminal hydrolase 28 (Homo sapiens) (UniProt Q96RU2); assay: Inhibition of human USP28 (149 to 707 residues) expressed in Escherichia coli Rosetta 2 (DE3) cells using Ub-Rh110Gly as fluorogenic substrate at 40 uM preincubated for 1 hr followed by substrate addition by plate reader analysis
T2 sequence (whole entry): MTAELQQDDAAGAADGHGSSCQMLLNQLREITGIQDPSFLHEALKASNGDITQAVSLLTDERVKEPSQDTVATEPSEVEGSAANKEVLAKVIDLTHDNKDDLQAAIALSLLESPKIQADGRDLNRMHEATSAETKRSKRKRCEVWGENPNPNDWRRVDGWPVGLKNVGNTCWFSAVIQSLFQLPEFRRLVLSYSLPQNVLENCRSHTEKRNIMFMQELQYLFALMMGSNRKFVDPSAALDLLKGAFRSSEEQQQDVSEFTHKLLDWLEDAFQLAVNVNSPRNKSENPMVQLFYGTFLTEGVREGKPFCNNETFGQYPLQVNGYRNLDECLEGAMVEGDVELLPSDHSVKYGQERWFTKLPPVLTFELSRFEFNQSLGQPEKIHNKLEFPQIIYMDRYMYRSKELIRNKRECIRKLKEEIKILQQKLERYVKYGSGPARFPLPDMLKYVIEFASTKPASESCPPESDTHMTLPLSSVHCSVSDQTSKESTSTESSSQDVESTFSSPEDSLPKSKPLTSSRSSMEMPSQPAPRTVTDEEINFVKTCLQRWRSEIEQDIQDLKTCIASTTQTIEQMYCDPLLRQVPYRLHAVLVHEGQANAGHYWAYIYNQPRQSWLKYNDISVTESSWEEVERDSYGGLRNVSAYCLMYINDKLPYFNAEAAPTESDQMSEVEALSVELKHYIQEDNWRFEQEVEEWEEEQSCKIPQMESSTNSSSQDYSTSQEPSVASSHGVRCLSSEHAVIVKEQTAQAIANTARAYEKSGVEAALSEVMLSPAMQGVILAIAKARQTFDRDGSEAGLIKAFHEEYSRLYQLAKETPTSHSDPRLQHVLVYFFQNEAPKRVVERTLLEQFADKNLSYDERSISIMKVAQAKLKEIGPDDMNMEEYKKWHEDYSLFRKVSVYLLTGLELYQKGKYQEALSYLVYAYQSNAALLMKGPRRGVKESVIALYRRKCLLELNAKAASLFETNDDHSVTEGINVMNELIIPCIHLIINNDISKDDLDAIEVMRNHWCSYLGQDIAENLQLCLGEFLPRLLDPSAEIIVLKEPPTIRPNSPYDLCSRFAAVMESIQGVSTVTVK

[4] = molecular target: Ubiquitin carboxyl-terminal hydrolase 7 (Homo sapiens) (UniProt Q93009); assay: Inhibition of 6His-tagged human USP7 using Ub-Rh110Gly as fluorogenic substrate at 40 uM preincubated for 1 hr followed by substrate addition by plate reader analysis
Chlamydia trachomatis [5] = assay: Anti-chlamydial activity against Chlamydia trachomatis serovar L2 infected in human HEp-2 cells assessed as fold change in inhibition of chlamydial inclusion incubated for 24 hrs by Alexa488/DAPI staining based immunofluorescence assay relative to doxycycline; assay type: functional
HeLa = assay: Cytotoxicity against human HeLa cells at 128 ug/ml incubated for 20 hrs by […] assay; assay type: functional, cell-based; conditions: dose 128.0 µg/ml
Chlamydia trachomatis [6] = assay: Antimicrobial activity against Chlamydia trachomatis serovar L2 infected in human HeLa cells assessed as reduction in inclusion area at 12.5 ug/ml measured after 24 hrs of post-infection by microscopic analysis; assay type: functional; conditions: dose 12.5 µg/ml
Chlamydia trachomatis [7] = assay: Antimicrobial activity against Chlamydia trachomatis serovar L2 infected in human HeLa cells assessed as change in inclusion morphology at 1.56 to 12.5 ug/ml measured after 24 hrs of post-infection by immunofluorescence based microscopic analysis; assay type: functional, organism-based; conditions: dose 1.56-12.5 µg/ml
Chlamydia trachomatis [8] = assay: Antimicrobial activity against Chlamydia trachomatis serovar L2 infected in human HeLa cells assessed as reduction in microbial progeny at 12.5 ug/ml measured after 24 hrs of post-infection by immunofluorescence analysis; assay type: functional; design: scale not given: the % may be the effect or the level left; conditions: dose 12.5 µg/ml
Chlamydia trachomatis [9] = assay: Antimicrobial activity against Chlamydia trachomatis serovar L2 infected in human HeLa cells assessed as reduction in microbial progeny at 1.56 ug/ml measured after 24 hrs of post-infection by immunofluorescence analysis; assay type: functional; conditions: dose 1.56 µg/ml
Chlamydia trachomatis [10] = assay: Antimicrobial activity against Chlamydia trachomatis serovar L2 infected in human HeLa cells assessed as reduction in microbial progeny at 3.13 ug/ml measured after 48 hrs of post-infection by immunofluorescence analysis; assay type: functional; design: scale not given: the % may be the effect or the level left; conditions: dose 3.13 µg/ml

Chain of Ubiquitin carboxyl-terminal hydrolase 7 (Homo sapiens) (Q93009 whole entry, looked up): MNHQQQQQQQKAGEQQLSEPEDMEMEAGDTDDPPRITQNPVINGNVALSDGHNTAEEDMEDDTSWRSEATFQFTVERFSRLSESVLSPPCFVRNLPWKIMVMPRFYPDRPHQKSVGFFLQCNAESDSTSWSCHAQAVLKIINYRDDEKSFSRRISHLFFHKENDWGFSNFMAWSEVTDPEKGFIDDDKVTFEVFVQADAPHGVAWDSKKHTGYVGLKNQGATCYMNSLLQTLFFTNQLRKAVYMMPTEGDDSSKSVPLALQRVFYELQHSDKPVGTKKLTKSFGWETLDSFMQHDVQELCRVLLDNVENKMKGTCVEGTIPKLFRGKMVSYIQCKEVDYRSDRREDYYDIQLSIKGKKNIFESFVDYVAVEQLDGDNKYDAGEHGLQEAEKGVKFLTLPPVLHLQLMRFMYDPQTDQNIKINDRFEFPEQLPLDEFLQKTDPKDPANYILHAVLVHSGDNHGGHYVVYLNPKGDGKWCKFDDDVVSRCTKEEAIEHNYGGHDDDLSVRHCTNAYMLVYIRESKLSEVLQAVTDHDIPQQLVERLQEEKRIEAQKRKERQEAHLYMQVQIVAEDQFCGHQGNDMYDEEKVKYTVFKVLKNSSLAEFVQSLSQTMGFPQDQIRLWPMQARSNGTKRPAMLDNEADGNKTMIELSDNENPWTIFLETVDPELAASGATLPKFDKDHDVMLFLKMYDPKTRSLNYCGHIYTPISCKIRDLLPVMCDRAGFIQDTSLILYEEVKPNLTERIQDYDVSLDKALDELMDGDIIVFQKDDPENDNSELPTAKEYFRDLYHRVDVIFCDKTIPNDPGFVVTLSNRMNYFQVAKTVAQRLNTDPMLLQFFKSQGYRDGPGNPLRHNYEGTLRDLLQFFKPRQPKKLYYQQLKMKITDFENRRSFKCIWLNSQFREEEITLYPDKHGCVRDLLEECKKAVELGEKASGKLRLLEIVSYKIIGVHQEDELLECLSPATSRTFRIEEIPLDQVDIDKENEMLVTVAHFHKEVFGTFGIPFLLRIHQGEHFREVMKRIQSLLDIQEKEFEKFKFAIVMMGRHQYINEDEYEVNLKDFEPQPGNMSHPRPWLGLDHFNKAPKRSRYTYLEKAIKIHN

IC50 [1]: 7.7 µM
pIC50 [1]: 5.11
IC50 [2]: 4.2 µM
inhibition [3]: inactive
inhibition [4]: inactive
Compound: N#Cc1ncc(C(=O)NCc2ccc(C(=O)NC34CC5CC(CC(C5)C3)C4)cc2)cn1
fold change (FC) (Chlamydia trachomatis [5]): 200
Activity (HeLa): inactive
Activity (Chlamydia trachomatis [6]): 15.38 um2
Activity (Chlamydia trachomatis [7]): inactive
Activity (Chlamydia trachomatis [8]): 80%
Activity (Chlamydia trachomatis [9]): inactive
Activity (Chlamydia trachomatis [10]): 11%

Source: ChEMBL document CHEMBL5576083, “Structure-Based Design and Synthesis of Covalent Inhibitors for Deubiquitinase and Acetyltransferase ChlaDUB1 of Chlamydia trachomatis” (J Med Chem, 2024)
